In one experiment the target is Rho kinase 1 (Homo sapiens, UniProt Q13464). Put plainly: In vitro Rho kinase inhibitory activity assay (ADP-Glo kit, Myelin Basic Protein substrate). Type of experiment: biochemical. Conditions: 10 μM ATP, 25° C., read-out: ROCK1 inhibitory activity (Ki, range of activity). In a few lines: (§1)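 Human ROCK1 or ROCK2 was preincubated with compound for 30 min at 25 °C in 40 mM Tris pH7.5, 20 mM MgCl2, 0.1 mg/ml BSA, 50 μM DTT, 2.5 μM Myelin Basic Protein, 1% DMSO final. Reactions ran 1 hour with 10 μM ATP final; ADP-Glo luminescence gave IC50 by sigmoidal fit, Ki by Cheng-Prusoff.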
Chain of Rho kinase 1 (Q13464 whole entry): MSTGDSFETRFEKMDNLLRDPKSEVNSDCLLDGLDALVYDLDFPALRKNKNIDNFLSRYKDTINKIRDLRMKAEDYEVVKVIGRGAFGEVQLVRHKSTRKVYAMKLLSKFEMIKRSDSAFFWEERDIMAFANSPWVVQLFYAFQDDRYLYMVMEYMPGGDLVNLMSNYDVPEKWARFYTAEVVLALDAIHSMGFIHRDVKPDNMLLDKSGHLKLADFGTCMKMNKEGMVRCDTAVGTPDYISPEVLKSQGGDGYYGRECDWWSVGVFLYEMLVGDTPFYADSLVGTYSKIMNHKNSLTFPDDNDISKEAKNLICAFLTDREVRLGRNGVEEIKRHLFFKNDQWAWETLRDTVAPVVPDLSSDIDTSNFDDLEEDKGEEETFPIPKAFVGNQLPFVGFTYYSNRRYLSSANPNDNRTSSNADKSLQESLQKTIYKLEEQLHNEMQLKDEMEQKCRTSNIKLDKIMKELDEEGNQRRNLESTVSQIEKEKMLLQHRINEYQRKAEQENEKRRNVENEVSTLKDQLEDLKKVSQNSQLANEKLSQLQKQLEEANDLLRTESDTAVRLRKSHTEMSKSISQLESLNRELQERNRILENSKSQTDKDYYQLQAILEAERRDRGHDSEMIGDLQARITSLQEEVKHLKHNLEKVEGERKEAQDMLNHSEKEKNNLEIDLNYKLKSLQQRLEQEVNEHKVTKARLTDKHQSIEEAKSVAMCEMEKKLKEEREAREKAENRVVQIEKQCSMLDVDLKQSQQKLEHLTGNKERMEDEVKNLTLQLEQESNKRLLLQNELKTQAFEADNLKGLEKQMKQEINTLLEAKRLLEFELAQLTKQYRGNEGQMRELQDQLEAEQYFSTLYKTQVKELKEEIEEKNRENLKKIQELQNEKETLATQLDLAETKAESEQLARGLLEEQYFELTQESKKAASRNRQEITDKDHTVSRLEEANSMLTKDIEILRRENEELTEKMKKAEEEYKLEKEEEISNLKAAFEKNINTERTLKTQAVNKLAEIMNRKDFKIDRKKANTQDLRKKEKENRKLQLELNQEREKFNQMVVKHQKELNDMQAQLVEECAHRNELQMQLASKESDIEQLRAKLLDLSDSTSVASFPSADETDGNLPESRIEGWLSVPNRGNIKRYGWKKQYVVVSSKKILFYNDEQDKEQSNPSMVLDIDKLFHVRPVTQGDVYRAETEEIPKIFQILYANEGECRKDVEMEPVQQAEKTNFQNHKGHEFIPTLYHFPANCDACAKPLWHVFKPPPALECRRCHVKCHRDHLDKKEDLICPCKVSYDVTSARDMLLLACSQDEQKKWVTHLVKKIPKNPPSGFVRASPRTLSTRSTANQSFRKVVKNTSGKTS

Another experiment concerns the target Rho kinase 2 (Homo sapiens, UniProt O75116). The description is as above. Type of experiment: biochemical. The following applies: 10 μM ATP, 25° C., read-out: ROCK2 inhibitory activity (Ki, range of activity). In a few lines: as §1

Chain of Rho kinase 2 (O75116 whole entry): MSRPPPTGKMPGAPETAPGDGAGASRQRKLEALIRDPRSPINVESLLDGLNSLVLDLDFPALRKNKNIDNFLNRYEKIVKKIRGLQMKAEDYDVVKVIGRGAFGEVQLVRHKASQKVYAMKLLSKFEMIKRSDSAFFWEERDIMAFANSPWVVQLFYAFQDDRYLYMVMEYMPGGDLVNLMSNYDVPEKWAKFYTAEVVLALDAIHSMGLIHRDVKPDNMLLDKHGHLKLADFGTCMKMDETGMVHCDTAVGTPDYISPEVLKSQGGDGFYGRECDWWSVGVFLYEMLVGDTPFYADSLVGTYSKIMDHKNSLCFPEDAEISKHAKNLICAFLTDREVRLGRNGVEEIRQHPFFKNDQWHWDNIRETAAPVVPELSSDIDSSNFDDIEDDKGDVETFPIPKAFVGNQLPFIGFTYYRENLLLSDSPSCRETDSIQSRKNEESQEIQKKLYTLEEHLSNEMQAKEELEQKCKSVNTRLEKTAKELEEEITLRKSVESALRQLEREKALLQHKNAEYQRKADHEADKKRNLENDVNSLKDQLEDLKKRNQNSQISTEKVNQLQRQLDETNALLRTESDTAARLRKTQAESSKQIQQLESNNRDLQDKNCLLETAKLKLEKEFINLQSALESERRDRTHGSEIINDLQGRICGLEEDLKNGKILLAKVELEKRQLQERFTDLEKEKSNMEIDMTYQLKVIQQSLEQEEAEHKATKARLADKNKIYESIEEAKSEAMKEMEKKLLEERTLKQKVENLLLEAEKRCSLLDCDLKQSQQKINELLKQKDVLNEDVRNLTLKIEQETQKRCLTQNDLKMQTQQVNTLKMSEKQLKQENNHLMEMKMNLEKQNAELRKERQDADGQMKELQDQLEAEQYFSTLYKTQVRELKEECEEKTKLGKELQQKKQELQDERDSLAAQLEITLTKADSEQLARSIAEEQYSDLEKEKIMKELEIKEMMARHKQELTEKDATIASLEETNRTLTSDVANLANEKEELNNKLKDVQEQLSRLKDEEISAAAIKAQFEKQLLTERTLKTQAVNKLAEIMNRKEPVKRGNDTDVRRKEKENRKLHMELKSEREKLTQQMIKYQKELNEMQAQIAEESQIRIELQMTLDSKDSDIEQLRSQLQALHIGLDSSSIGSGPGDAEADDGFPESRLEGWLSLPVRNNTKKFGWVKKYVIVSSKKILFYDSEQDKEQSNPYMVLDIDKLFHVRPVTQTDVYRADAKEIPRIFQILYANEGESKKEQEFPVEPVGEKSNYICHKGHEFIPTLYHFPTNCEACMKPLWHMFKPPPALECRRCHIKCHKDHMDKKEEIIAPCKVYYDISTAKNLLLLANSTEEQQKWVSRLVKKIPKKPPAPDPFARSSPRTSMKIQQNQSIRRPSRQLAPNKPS

As to `CC1=C(C(=O)Nc2ccc3cnccc3c2)C(c2ccc(C(F)(F)F)c(F)c2)n2nc(C(=O)N(C)CCCN(C)C)cc2N1` (stereo not shown) [Example 89, N2-(3-(dimethylamino)propyl)-7-(3-fluoro-4-(trifluoromethyl)phenyl)-N6-(isoquinolin-6-yl)-N2,5-dimethyl-4,7-dihydropyrazolo[1,5-a]pyrimidine-2,6-dicarboxamide], the Ki on Rho kinase 1 and at Rho kinase 2 was less than 50 nM throughout.

With `CC1=C(C(=O)Nc2ccc3[nH]ncc3c2)C(c2ccc(F)cc2)n2nc(C(=O)N3CCOCC3)cc2N1` (stereo not shown) [Example 90, 7-(4-fluorophenyl)-N-(1H-indazol-5-yl)-5-methyl-2-(morpholine-4-carbonyl)-4,7-dihydropyrazolo[1,5-a]pyrimidine-6-carboxamide], the inhibitory constant (Ki) at Rho kinase 1 and at Rho kinase 2 was less than 50 nM each time.

For `CC1=C(C(=O)Nc2ccc3[nH]ncc3c2)C(c2ccc(F)cc2)n2ncc(C(=O)N3CCN(C)CC3)c2N1` (stereo not shown) [Example 91, 7-(4-fluorophenyl)-N-(1H-indazol-5-yl)-5-methyl-3-(4-methylpiperazine-1-carbonyl)-4,7-dihydropyrazolo[1,5-a]pyrimidine-6-carboxamide], the Ki on Rho kinase 1 and on Rho kinase 2 was more than 500 nM throughout.

Consider `CC1=C(C(=O)Nc2ccc3[nH]ncc3c2)C(c2ccc(F)cc2)n2ncc(C(=O)NCCN(C)C)c2N1` (stereo not shown) [Example 92, N3-(2-(dimethylamino)ethyl)-7-(4-fluorophenyl)-N6-(1H-indazol-5-yl)-5-methyl-4,7-dihydropyrazolo[1,5-a]pyrimidine-3,6-dicarboxamide], for which the Ki at Rho kinase 1 and on Rho kinase 2 was more than 500 nM throughout.

In the case of `CC1=C(C(=O)Nc2ccc3[nH]ncc3c2)C(c2ccc(F)cc2)n2nc(C(=O)N3CCNCC3)cc2N1` (stereo not shown) [Example 93, 7-(4-fluorophenyl)-N-(1H-indazol-5-yl)-5-methyl-2-(piperazine-1-carbonyl)-4,7-dihydropyrazolo[1,5-a]pyrimidine-6-carboxamide], the Ki at Rho kinase 1 and on Rho kinase 2 was less than 50 nM throughout.

Consider `CC1=C(C(=O)Nc2ccc3cnccc3c2)C(c2ccc(C(F)(F)F)c(F)c2)n2nc(CN3CCOCC3)cc2N1` (stereo not shown) [Example 95, 7-(3-fluoro-4-(trifluoromethyl)phenyl)-N-(isoquinolin-6-yl)-5-methyl-2-(morpholinomethyl)-4,7-dihydropyrazolo[1,5-a]pyrimidine-6-carboxamide], for which the inhibition constant Ki on Rho kinase 1 and on Rho kinase 2 was less than 50 nM each time.

Consider `COCCN(C)Cc1cc2n(n1)C(c1ccc(C(F)(F)F)c(F)c1)C(C(=O)Nc1ccc3cnccc3c1)=C(C)N2` (stereo not shown) [Example 98, 7-(3-fluoro-4-(trifluoromethyl)phenyl)-N-(isoquinolin-6-yl)-2-(((2-methoxyethyl)(methyl)amino)methyl)-5-methyl-4,7-dihydropyrazolo[1,5-a]pyrimidine-6-carboxamide], for which the Ki at Rho kinase 1 and on Rho kinase 2 was less than 50 nM each time.

Consider `COC1CCN(Cc2cc3n(n2)C(c2ccc(C(F)(F)F)c(F)c2)C(C(=O)Nc2ccc4cnccc4c2)=C(C)N3)CC1` (stereo not shown) [Example 99, 7-(3-fluoro-4-(trifluoromethyl)phenyl)-N-(isoquinolin-6-yl)-2-((4-methoxypiperidin-1-yl)methyl)-5-methyl-4,7-dihydropyrazolo[1,5-a]pyrimidine-6-carboxamide], for which the inhibitory constant (Ki) at Rho kinase 1 and on Rho kinase 2 was less than 50 nM each time.

Regarding `COC1CN(Cc2cc3n(n2)C(c2ccc(C(F)(F)F)c(F)c2)C(C(=O)Nc2ccc4cnccc4c2)=C(C)N3)C1` (stereo not shown) [Example 100, 7-(3-fluoro-4-(trifluoromethyl)phenyl)-N-(isoquinolin-6-yl)-2-((3-methoxyazetidin-1-yl)methyl)-5-methyl-4,7-dihydropyrazolo[1,5-a]pyrimidine-6-carboxamide], the Ki at Rho kinase 1 and on Rho kinase 2 was less than 50 nM each time.

As to `COCC1CN(Cc2cc3n(n2)C(c2ccc(C(F)(F)F)c(F)c2)C(C(=O)Nc2ccc4cnccc4c2)=C(C)N3)C1` (stereo not shown) [Example 101, 7-(3-fluoro-4-(trifluoromethyl)phenyl)-N-(isoquinolin-6-yl)-2-((3-(methoxymethyl)azetidin-1-yl)methyl)-5-methyl-4,7-dihydropyrazolo[1,5-a]pyrimidine-6-carboxamide], the Ki on Rho kinase 1 and at Rho kinase 2 was less than 50 nM each time.

In the case of `CC1=C(C(=O)Nc2ccc3cnccc3c2)C(c2ccc(C(F)(F)F)c(F)c2)n2nc(CN3CCCC3)cc2N1` (stereo not shown) [Example 102, 7-(3-fluoro-4-(trifluoromethyl)phenyl)-N-(isoquinolin-6-yl)-5-methyl-2-(pyrrolidin-1-ylmethyl)-4,7-dihydropyrazolo[1,5-a]pyrimidine-6-carboxamide], the Ki at Rho kinase 1 and at Rho kinase 2 was less than 50 nM each time.

Turning to `CC1=C(C(=O)Nc2ccc3cnccc3c2)C(c2ccc(C(F)(F)F)c(F)c2)n2nc(CN3CCC4(CCN(C)CC4)C3)cc2N1` (stereo not shown) [Example 103, 7-(3-fluoro-4-(trifluoromethyl)phenyl)-N-(isoquinolin-6-yl)-5-methyl-2-((8-methyl-2,8-diazaspiro[4.5]decan-2-yl)methyl)-4,7-dihydropyrazolo[1,5-a]pyrimidine-6-carboxamide], the inhibitory constant (Ki) on Rho kinase 1 and at Rho kinase 2 was less than 50 nM throughout.

As for `CC1=C(C(=O)Nc2ccc3cnccc3c2)C(c2ccc(C(F)(F)F)c(F)c2)n2nc(CN3CCC(N4CCCC4)CC3)cc2N1` (stereo not shown) [Example 105, 7-(3-fluoro-4-(trifluoromethyl)phenyl)-N-(isoquinolin-6-yl)-5-methyl-2-((4-(pyrrolidin-1-yl)piperidin-1-yl)methyl)-4,7-dihydropyrazolo[1,5-a]pyrimidine-6-carboxamide], the Ki on Rho kinase 1 and on Rho kinase 2 was less than 50 nM in each case.

Consider `CC1=C(C(=O)Nc2ccc3cnccc3c2)C(c2ccc(C(F)(F)F)c(F)c2)n2nc(CN3CC(CN(C)C)C3)cc2N1` (stereo not shown) [Example 106, 2-((3-((dimethylamino)methyl)azetidin-1-yl)methyl)-7-(3-fluoro-4-(trifluoromethyl)phenyl)-N-(isoquinolin-6-yl)-5-methyl-4,7-dihydropyrazolo[1,5-a]pyrimidine-6-carboxamide], for which the Ki at Rho kinase 1 and at Rho kinase 2 was less than 50 nM each time.

For `CC1=C(C(=O)Nc2ccc3[nH]ncc3c2)C(c2ccc(C(F)(F)F)cc2)n2nc(CN3CCOCC3)cc2N1` (stereo not shown) [Example 107, N-(1H-indazol-5-yl)-5-methyl-2-(morpholinomethyl)-7-(4-(trifluoromethyl)phenyl)-4,7-dihydropyrazolo[1,5-a]pyrimidine-6-carboxamide], the Ki at Rho kinase 1 and on Rho kinase 2 was less than 50 nM each time.

Consider `CC1=C(C(=O)Nc2ccc3cnccc3c2)C(c2ccc(C(F)(F)F)c(F)c2)n2nc(CN3CCS(=O)(=O)CC3)cc2N1` (stereo not shown) [Example 108, 2-((1,1-Dioxidothiomorpholino)methyl)-7-(3-fluoro-4-(trifluoromethyl)phenyl)-N-(isoquinolin-6-yl)-5-methyl-4,7-dihydropyrazolo[1,5-a]pyrimidine-6-carboxamide], for which the Ki at Rho kinase 1 and on Rho kinase 2 was less than 50 nM each time.

`CC(=O)N1CCN(Cc2cc3n(n2)C(c2ccc(C(F)(F)F)c(F)c2)C(C(=O)Nc2ccc4cnccc4c2)=C(C)N3)CC1` (stereo not shown) [Example 109, 2-((4-acetylpiperazin-1-yl)methyl)-7-(3-fluoro-4-(trifluoromethyl)phenyl)-N-(isoquinolin-6-yl)-5-methyl-4,7-dihydropyrazolo[1,5-a]pyrimidine-6-carboxamide]: the Ki at Rho kinase 1 and on Rho kinase 2 was less than 50 nM each time.

Take `CC1=C(C(=O)Nc2ccc3[nH]ncc3c2)C(c2ccc(C(F)(F)F)cc2)n2nc(CN)cc2N1` (stereo not shown) [Example 111, 2-(aminomethyl)-N-(1H-indazol-5-yl)-5-methyl-7-(4-(trifluoromethyl)phenyl)-4,7-dihydropyrazolo[1,5-a]pyrimidine-6-carboxamide]: the inhibitory constant (Ki) at Rho kinase 1 and on Rho kinase 2 was less than 50 nM throughout.

Regarding `CC1=C(C(=O)Nc2ccc3cnccc3c2)C(c2ccc(C(F)(F)F)c(F)c2)n2nc(CN)cc2N1` (stereo not shown) [Example 112, 2-(aminomethyl)-7-(3-fluoro-4-(trifluoromethyl)phenyl)-N-(isoquinolin-6-yl)-5-methyl-4,7-dihydropyrazolo[1,5-a]pyrimidine-6-carboxamide], the Ki at Rho kinase 1 and on Rho kinase 2 was less than 50 nM in each case.

On to `CCOC(=O)c1cc2n(n1)C(c1ccc(C(F)(F)F)c(F)c1)C(C(=O)Nc1ccc3cnccc3n1)=C(C)N2` (stereo not shown) [Example 113, ethyl 6-((1,6-naphthyridin-2-yl)carbamoyl)-7-(3-fluoro-4-(trifluoromethyl)phenyl)-5-methyl-4,7-dihydropyrazolo[1,5-a]pyrimidine-2-carboxylate], for which the Ki at Rho kinase 1 and at Rho kinase 2 was less than 50 nM throughout.

Turning to `CCOC(=O)c1cc2n(n1)C(c1ccc(C(F)(F)F)c(F)c1)C(C(=O)Nc1ccc3cncc(C)c3c1)=C(C)N2` (stereo not shown) [Example 114, ethyl 7-(3-fluoro-4-(trifluoromethyl)phenyl)-5-methyl-6-((4-methylisoquinolin-6-yl)carbamoyl)-4,7-dihydropyrazolo[1,5-a]pyrimidine-2-carboxylate], the Ki on Rho kinase 1 and on Rho kinase 2 was less than 50 nM throughout.

`CCOC(=O)c1cc2n(n1)C(c1ccc(C(F)F)c(F)c1)C(C(=O)Nc1ccc3cnccc3c1)=C(C)N2` (stereo not shown) [Example 115, ethyl 7-(4-(difluoromethyl)-3-fluorophenyl)-6-(isoquinolin-6-ylcarbamoyl)-5-methyl-4,7-dihydropyrazolo[1,5-a]pyrimidine-2-carboxylate]: the Ki at Rho kinase 1 and on Rho kinase 2 was less than 50 nM each time.

Take `CC1=C(C(=O)Nc2ccc3cnccc3c2)C(c2ccc(C(F)(F)F)c(F)c2)n2nc(C3COC3)cc2N1` (stereo not shown) [Example 116, 7-(3-fluoro-4-(trifluoromethyl)phenyl)-N-(isoquinolin-6-yl)-5-methyl-2-(oxetan-3-yl)-4,7-dihydropyrazolo[1,5-a]pyrimidine-6-carboxamide]: the Ki on Rho kinase 1 and on Rho kinase 2 was less than 50 nM each time.
